Measurements from patent publication US20220370416A1, “COMPOUNDS AND METHODS FOR TARGETED DEGRADATION OF KRAS” (Arvinas Operations, Inc., priority 2020, published 2022).

Each compound was assayed against HiBit-KRAS^G12C (Homo sapiens, UniProt P01116, G12C) (assay: HiBit degradation assay in SW1573 HiBit-KRas^G12C cells). Conditions: SW1573, SW1573 HiBit-KRas^G12C, 0.1% DMSO, 24 hours; read-out: KRas^G12C-HiBit (SW1573; 0.1% DMSO) Dmax**.
Type: cell-based
Parameters: expressed in transfected cells; host or cells: SW1573 (clone E6), modified pcDNA3.1 vector, TK promoter
Protocol: Reagents. SW1573 (CRL-2170) and MiaPaCa-2 (CRL-1420) cells were purchased from ATCC. Both cell lines are […] for the G12C mutation in KRAS. SW1573 cells were cultured in DMEM+F12+Glutamax (+Sodium Bicarbonate, +sodium pyruvate, Thermofisher scientific, #10565) supplemented with 10% FBS (Thermofisher scientific, #2060357) and 1% Antibiotic-Antimycotic (Thermofisher scientific, #15240096). MiaPaCa-2 cells were cultured in DMEM+Glutamax media (Thermofisher scientific, #10566) supplemented with 10% FBS (Thermofisher scientific, #2060357) and 1% Antibiotic-Antimycotic (Thermofisher scientific, #15240096). For degradation assays, 384 well plates were purchased from Corning (Corning® CellBIND® 384-well Flat Clear Bottom Black Polystyrene Microplates, Low Flange, #3770). Gambogic acid was purchased from Selleckchem (#S2448). Alamar blue was purchased from Thermofisher scientific (A50101) and used according to manufacturer instructions. The Nano-Glo® HiBit Lytic Detection System and Nano-Glo® HiBit Blotting System were purchased from Promega (#N3050 and #N2410) and used according to manufacturer instructions.
To create the SW1573 HiBit-KRAS^G12C cell line, the nucleotide sequence encoding the 11 amino acid HiBit tag from Promega (Schwinn, M. K. et al. (2018) CRISPR-mediated tagging of endogenous proteins with a luminescent peptide. ACS Chem. Biol. 13(2), 467-474) was appended to the N-terminus of the KRAS^G12C coding sequence. This synthesized DNA was cloned into a modified pcDNA3.1 vector under the control of the thymidine kinase (TK) promoter. This HiBit-KRAS^G12C expressing plasmid was transfected into parental SW1573 cells and colonies were selected using 400 μg/mL zeocin. The resulting clonal lines were screened for expression of HiBit-KRAS^G12C protein using Nano-Glo® HiBit Blotting System. A luminescent band of the correct size for HiBit-KRAS^G12C was detected in several clones. Clone E6 was selected for further studies.
Either SW1573 HiBit-KRas^G12C or MiaPaCa-2 HiBit-KRas^G12C cells were plated at 9000 cells/well in a 384 well plate (Corning #3770). Exemplary heterobifunctional molecules and positive controls were diluted in the appropriate cell media and applied to the plated cells resulting in a final concentration titration of 10 μM to 20 nM in either 0.1% or 0.5% dimethyl sulfoxide (DMSO). Gambogic acid was used as a positive control for cytotoxicity and titrated from 10 μM to 78 nM. All assays were performed in triplicate. Cells were treated with compounds for 24 hours at 37° C. in an incubator containing 5% CO2. Following treatment, alamar blue was used to determine if any compounds led to a loss in cell viability after 24 hours. The 10× alamar blue reagent was added to a final concentration of 1× as recommended by the manufacturer and cells were returned to the incubator for 4 hours. Plates were then allowed to equilibrate to room temperature and fluorescence was measured using a Perkin-Elmer EnVision. After completion of the fluorescence read, the liquid from each well was removed and the cells were washed with PBS. The Nano-Glo® HiBiT detection reagent was prepared according to the manufacturer's instructions and added to each well after the PBS wash was removed. Following incubation at room temperature for 45 minutes, the luminescence was read using the ultra-sensitive luminescence aperture on the Envision instrument.
Fluorescence values from the alamar blue treatment were normalized to the DMSO only control for each compound titration. We hypothesized that compounds that led to a ≥50% loss in cell viability of the KRAS-independent SW1573 HiBit-KRas^G12C cells were likely generally cytotoxic and loss of HiBit-KRAS^G12C signal from these compounds may be due to lower cell number and not specific KRAS^G12C degradation. These points were therefore excluded from the data analysis for degradation. […]

Sequence of HiBit-KRAS^G12C (P01116 1-186 isoform P01116-2 G12C limits assumed): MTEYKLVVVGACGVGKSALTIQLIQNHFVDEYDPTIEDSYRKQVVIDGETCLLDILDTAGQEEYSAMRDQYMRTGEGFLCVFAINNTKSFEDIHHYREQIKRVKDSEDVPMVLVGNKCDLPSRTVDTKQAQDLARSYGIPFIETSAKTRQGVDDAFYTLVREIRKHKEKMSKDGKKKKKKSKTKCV

Dmax	Structure (SMILES)
< 35%	C=CC(=O)N1CCN(c2nc(O[C@H](C)CN3CCC(OCCOCCOCCOCCOc4cc(-c5scnc5C)ccc4CNC(=O)[C@@H]4C[C@@H](O)CN4C(=O)[C@H](c4cc(C)no4)C(C)C)CC3)nc3c(F)c(-c4cc(O)cc5ccccc45)c(Cl)cc23)CC1 [Compound 75, (2S,4R)-N-({2-[2-(2-{2-[2-({1-[(2R)-2-{[6-chloro-8-fluoro-7-(3-hydroxynaphthalen-1-yl)-4-[4-(prop-2-enoyl)piperazin-1-yl]quinazolin-2-yl]oxy}propyl]piperidin-4-yl}oxy)ethoxy]ethoxy}ethoxy)ethoxy]-4-(4-methyl-1,3-thiazol-5-yl)phenyl}methyl)-4-hydroxy-1-[(2S)-3-methyl-2-(3-methyl-1,2-oxazol-5-yl)butanoyl]pyrrolidine-2-carboxamide]

Same assay, conditions: SW1573 HiBit-KRas^G12C, 0.1% DMSO, 24 hours; read-out: KRas^G12C-HIBit (SW1573; 0.1% DMSO) DC50*

Structure (SMILES)	DC50
C=CC(=O)N1CCN(c2nc(O[C@H](C)CN3CCN(CCCC4CCN(CC(=O)N[C@H](C(=O)N5C[C@H](O)C[C@H]5C(=O)N[C@@H](C)c5ccc(-c6scnc6C)cc5)C(C)(C)C)CC4)CC3)nc3c(F)c(-c4cc(O)cc5ccccc45)c(Cl)cc23)CC1 [Compound 52, (2S,4R)-1-[(2S)-2-{2-[4-(3-{4-[(2R)-2-{[6-chloro-8-fluoro-7-(3-hydroxynaphthalen-1-yl)-4-[4-(prop-2-enoyl)piperazin-1-yl]quinazolin-2-yl]oxy}propyl]piperazin-1-yl}propyl)piperidin-1-yl]acetamido}-3,3-dimethylbutanoyl]-4-hydroxy-N-[(1S)-1-[4-(4-methyl-1,3-thiazol-5-yl)phenyl]ethyl]pyrrolidine-2-carboxamide]	> 1000 nM
C=CC(=O)N1CCN(c2nc(O[C@H](C)CN3CCC(OCCOCC(=O)N[C@H](C(=O)N4C[C@H](O)C[C@H]4C(=O)N[C@@H](C)c4ccc(-c5scnc5C)cc4)C(C)(C)C)CC3)nc3c(F)c(-c4cc(O)cc5ccccc45)c(Cl)cc23)CC1 (atropisomer, axis not shown) [Compound 85, (2S,4R)-1-[(2S)-2-{2-[2-({1-[(2R)-2-{[6-chloro-8-fluoro-7-(3-hydroxynaphthalen-1-yl)-4-[4-(prop-2-enoyl)piperazin-1-yl]quinazolin-2-yl]oxy}propyl]piperidin-4-yl}oxy)ethoxy]acetamido}-3,3-dimethylbutanoyl]-4-hydroxy-N-[(1S)-1-[4-(4-methyl-1,3-thiazol-5-yl)phenyl]ethyl]pyrrolidine-2-carboxamide]	> 1000 nM
C=CC(=O)N1CCN(c2nc(OCCN3CCC(COCC(=O)N[C@H](C(=O)N4C[C@H](O)C[C@H]4C(=O)N[C@@H](C)c4ccc(-c5scnc5C)cc4)C(C)(C)C)CC3)nc3c(F)c(-c4cc(O)cc5ccccc45)c(Cl)cc23)CC1 (atropisomer, axis not shown) [Compound 10, (2S,4R)-1-[(2S)-2-(2-{[1-(2-{[6-chloro-8-fluoro-7-(3-hydroxynaphthalen-1-yl)-4-[4-(prop-2-enoyl)piperazin-1-yl]quinazolin-2-yl]oxy}ethyl)piperidin-4-yl]methoxy}acetamido)-3,3-dimethylbutanoyl]-4-hydroxy-N-[(1S)-1-[4-(4-methyl-1,3-thiazol-5-yl)phenyl]ethyl]pyrrolidine-2-carboxamide]	> 1000 nM
C=CC(=O)N1CCN(c2nc(O[C@H](C)CN3CCC(CN(C)[C@H]4C[C@@H](OCC(=O)N[C@H](C(=O)N5C[C@H](O)C[C@H]5C(=O)N[C@@H](C)c5ccc(-c6scnc6C)cc5)C(C)(C)C)C4)CC3)nc3c(F)c(-c4cc(O)cc5ccccc45)c(Cl)cc23)CC1 [Compound 47, (2S,4R)-1-[(2S)-3,3-dimethyl-2-(2-[(1s,3s)-3-[({1-[(2R)-2-{[6-chloro-8-fluoro-7-(3-hydroxynaphthalen-1-yl)-4-[4-(prop-2-enoyl)piperazin-1-yl]quinazolin-2-yl]oxy}propyl]piperidin-4-yl}methyl)(methyl)amino]cyclobutoxy]acetamido}butanoyl]-4-hydroxy-N-[(1S)-1-[4-(4-methyl-1,3-thiazol-5-yl)phenyl]ethyl]pyrrolidine-2-carboxamide]	> 1000 nM
C=CC(=O)N1CCN(c2nc(OC[C@@H]3C[C@@H](OCCOCCOCCOCCOCCOCCOCCOCCOCCOCCOCC(=O)N[C@H](C(=O)N4C[C@H](O)C[C@H]4C(=O)N[C@@H](C)c4ccc(-c5scnc5C)cc4)C(C)(C)C)CN3C)nc3c2CCN(c2cccc4ccccc24)C3)C[C@@H]1CC#N [Compound 73, (2S,4R)-1-[(2S)-2-(32-{[(3R,5S)-5-[({4-[(3S)-3-(cyanomethyl)-4-(prop-2-enoyl)piperazin-1-yl]-7-(naphthalen-1-yl)-5H,6H,7H,8H-pyrido[3,4-d]pyrimidin-2-yl}oxy)methyl]-1-methylpyrrolidin-3-yl]oxy}-3,6,9,12,15,18,21,24,27,30-decaoxadotriacontanamido)-3,3-dimethylbutanoyl]-4-hydroxy-N-[(1S)-1-[4-(4-methyl-1,3-thiazol-5-yl)phenyl]ethyl]pyrrolidine-2-carboxamide]	> 1000 nM

Other lines, results leading:

DC50	Structure (SMILES)
> 1000 nM	C=CC(=O)N1CCN(c2nc(OC[C@@H]3C[C@@H](OCCOCCOCCOCCOCCOCCOCC(=O)N[C@H](C(=O)N4C[C@H](O)C[C@H]4C(=O)N[C@@H](C)c4ccc(-c5scnc5C)cc4)C(C)(C)C)CN3C)nc3c2CCN(c2cccc4ccccc24)C3)C[C@@H]1CC#N [Compound 81, (2S,4R)-1-[(2S)-2-(20-{[(3R,5S)-5-[({4-[(3S)-3-(cyanomethyl)-4-(prop-2-enoyl)piperazin-1-yl]-7-(naphthalen-1-yl)-5H,6H,7H,8H-pyrido[3,4-d]pyrimidin-2-yl}oxy)methyl]-1-methylpyrrolidin-3-yl]oxy}-3,6,9,12,15,18-hexaoxaicosanamido)-3,3-dimethylbutanoyl]-4-hydroxy-N-[(1S)-1-[4-(4-methyl-1,3-thiazol-5-yl)phenyl]ethyl]pyrrolidine-2-carboxamide]
> 1000 nM	C=CC(=O)N1CCN(c2nc(O[C@H](C)CN3CCC(OCCOCCOCCOCCOc4cc(-c5scnc5C)ccc4CNC(=O)[C@@H]4C[C@@H](O)CN4C(=O)[C@H](c4cc(C)no4)C(C)C)CC3)nc3c(F)c(-c4cc(O)cc5ccccc45)c(Cl)cc23)CC1 [Compound 75, (2S,4R)-N-({2-[2-(2-{2-[2-({1-[(2R)-2-{[6-chloro-8-fluoro-7-(3-hydroxynaphthalen-1-yl)-4-[4-(prop-2-enoyl)piperazin-1-yl]quinazolin-2-yl]oxy}propyl]piperidin-4-yl}oxy)ethoxy]ethoxy}ethoxy)ethoxy]-4-(4-methyl-1,3-thiazol-5-yl)phenyl}methyl)-4-hydroxy-1-[(2S)-3-methyl-2-(3-methyl-1,2-oxazol-5-yl)butanoyl]pyrrolidine-2-carboxamide]
> 1000 nM	C=CC(=O)N1CCN(c2nc(O[C@H](C)CN3CCC(OCCOc4cc(-c5scnc5C)ccc4CNC(=O)[C@@H]4C[C@@H](O)CN4C(=O)[C@@H](c4cc(C)no4)C(C)C)CC3)nc3c(F)c(-c4cc(O)cc5ccccc45)c(Cl)cc23)CC1 [Compound 78, (2S,4R)-N-({2-[2-({1-[(2R)-2-{[6-chloro-8-fluoro-7-(3-hydroxynaphthalen-1-yl)-4-[4-(prop-2-enoyl)piperazin-1-yl]quinazolin-2-yl]oxy}propyl]piperidin-4-yl}oxy)ethoxy]-4-(4-methyl-1,3-thiazol-5-yl)phenyl}methyl)-4-hydroxy-1-[(2R)-3-methyl-2-(3-methyl-1,2-oxazol-5-yl)butanoyl]pyrrolidine-2-carboxamide]
> 1000 nM	C=CC(=O)N1CCN(c2nc(O[C@H](C)CN3CCC(OCCOCC(=O)N[C@H](C(=O)N4C[C@H](O)C[C@H]4C(=O)N[C@@H](C)c4ccc(-c5scnc5C)cc4)C(C)(C)C)CC3)nc3c(F)c(-c4c(O)cccc4F)c(Cl)cc23)C[C@H]1C [Compound 44, (2S,4R)-1-[(2S)-2-{2-[2-({1-[(2R)-2-{[6-chloro-8-fluoro-7-(2-fluoro-6-hydroxyphenyl)-4-[(3R)-3-methyl-4-(prop-2-enoyl)piperazin-1-yl]quinazolin-2-yl]oxy}propyl]piperidin-4-yl}oxy)ethoxy]acetamido}-3,3-dimethylbutanoyl]-4-hydroxy-N-[(1S)-1-[4-(4-methyl-1,3-thiazol-5-yl)phenyl]ethyl]pyrrolidine-2-carboxamide]
